Reference: ChEMBL document CHEMBL1142675, “CH...O and CH...N hydrogen bonds in ligand design: a novel quinazolin-4-ylthiazol-2-ylamine protein kinase inhibitor” (J Med Chem, 2005)

Target: Glycogen synthase kinase-3 (Homo sapiens, UniProt P49840+P49841)
Experiment: Inhibition of Glycogen synthase kinase-3
Format: protein assay

## Cc1cc(Nc2nc(-c3ccccc3)nc3ccccc23)no1
  Ki: > 2000 nM

## Cc1cc(Nc2cc(-c3ccccc3)nc3ccccc23)[nH]n1
  Ki: 2500 nM

## Cc1n[nH]c(Nc2nc(-c3ccccc3)nc3ccccc23)n1
  Ki: 23000 nM

## Cc1cnc(Nc2nc(-c3ccccc3)nc3ccccc23)s1
  Ki: 150 nM

## c1ccc(-c2nc(Nc3cc[nH]n3)c3ccccc3n2)cc1
  Ki: 110 nM

## Cc1cc(Nc2nc(-c3ccccc3)nc3ccccc23)n[nH]1
  Ki: 24 nM

## c1ccc(-c2nc(Nc3nc[nH]n3)c3ccccc3n2)cc1
  Ki: 250 nM
